The assay concerns the target T1, human PAD4 (Homo sapiens, UniProt Q9UM07).
T1 construct: human PAD4 (NM_012387), A2-P663, was PCR amplified; His-SUMO (N, cleaved yes); made in house; host or cells: E. coli BL21(DE3)
The assay is described as follows: In vitro PAD4 BAEE biochemical assay. The settings on record: BAEE substrate 3 mM, 5 nM PAD4, 2 mM calcium chloride; geometric mean of multiple experiments. From the text:
In Vitro PAD4 BAEE Biochemical Assay
The enzymatic activity of human PAD4 was monitored in a biochemical assay in the presence or absence of compounds using the small peptidyl arginine mimic BAEE (Na-Benzoyl-L-arginine ethyl ester hydrochloride) as substrate. PAD4 activity led to deimination of BAEE and release of ammonia. Levels of ammonia were monitored by using an amine coupling reaction and were indicative of PAD4 enzymatic activity.
One hundred nanoliters of test compounds dissolved in DMSO at various concentrations were dispensed into a 384-well black OptiPlate using a Labcyte Echo instrument. Ten microliters of a solution of recombinant PAD4 and calcium chloride diluted in PAD4 assay buffer (50 mM MOPS [3-(N-morpholino) propanesulfonic acid], pH 7.6; 50 mM sodium chloride; 0.05% Tween-20; 2 mM dithiothreitol) was added to the compound-containing plate and was incubated for 30 minutes at 25° C. Ten microliters of a solution of BAEE (Sigma-Aldrich #B4500) diluted in PAD4 assay buffer was then added to start the reaction. Final concentrations were 5 nM PAD4, 2 mM calcium chloride, and 3 mM BAEE. The reaction mixture was incubated at 25° C. for 2 hours and was stopped with the addition of 10 microliters of a solution of 75 mM EDTA (Ethylenediaminetetraacetic acid) in PAD4 assay buffer. Thirty microliters of detection solution (5 mM o-phthalaldehyde, 50 mM MOPS [3-(N-morpholino) propanesulfonic acid], pH 7.6; 50 mM sodium chloride; 0.05% Tween-20; 5 mM dithiothreitol) was then added and the reaction was incubated for 1 hour at 25° C. The level of fluorescent thiol-substituted isoindole resulting from the reaction of ammonia, o-phthalaldehyde, and dithiothreitol was measured on an Envision plate reader (PerkinElmer) with 405 nm excitation and 535 nm emission.
Data were normalized based on maximum inhibition (50 micromolar of the covalent PAD inhibitor BB-Cl-Amidine (Bicker, K. L.; Anguish, L.; Chumanevich, A. A.; Cameron, M. D.; Cui, X.; Witalison, E.; Subramanian, V.; Zhang, X.; Chumanevich, A. P.; Hofseth, L. J.; Coonrod, S. A.; Thompson, P. R. ACS Med. Chem. Lett. 2012, 3, 1081-1085). and no inhibition (DMSO) controls. Least squares curve fittings were performed using a four-parameter variable slope nonlinear regression model. IC50 is defined as the concentration of compound required to inhibit 50% of maximum activity. IC50 values from multiple experiments were averaged by geometric mean and the standard deviation was calculated.

Each structure is given as a SMILES string.

T1 sequence (Q9UM07 2-663): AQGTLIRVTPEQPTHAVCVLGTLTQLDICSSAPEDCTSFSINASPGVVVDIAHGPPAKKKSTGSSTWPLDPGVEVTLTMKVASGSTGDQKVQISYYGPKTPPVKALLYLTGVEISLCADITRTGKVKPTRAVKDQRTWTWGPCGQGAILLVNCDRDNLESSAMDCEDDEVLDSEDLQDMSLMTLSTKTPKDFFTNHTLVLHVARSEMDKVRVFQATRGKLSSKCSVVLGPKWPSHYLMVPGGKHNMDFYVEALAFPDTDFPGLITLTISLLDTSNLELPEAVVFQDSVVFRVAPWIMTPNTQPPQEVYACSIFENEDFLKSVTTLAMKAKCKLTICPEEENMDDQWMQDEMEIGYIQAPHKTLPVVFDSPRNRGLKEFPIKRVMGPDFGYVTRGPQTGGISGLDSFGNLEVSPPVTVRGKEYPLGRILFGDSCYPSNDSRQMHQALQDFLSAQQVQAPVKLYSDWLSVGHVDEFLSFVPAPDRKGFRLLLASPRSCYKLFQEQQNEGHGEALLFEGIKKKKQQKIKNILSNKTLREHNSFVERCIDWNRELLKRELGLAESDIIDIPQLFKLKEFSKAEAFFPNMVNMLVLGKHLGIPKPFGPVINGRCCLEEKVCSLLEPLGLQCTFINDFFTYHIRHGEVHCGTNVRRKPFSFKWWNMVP

As usually defined, the IC50 is the concentration at which inhibition is half-maximal. In the case of `COc1cc(C(=O)N[C@H]2CNCC[C@@H]2F)cc2nc(-c3cc4ccc5nc4n3CCCCC[C@]3(C)C[C@H]3C(=O)N[C@@H]5C)n(C)c12` [Example 618, 2-[(2~{R},5~{R},7~{R})-2,7-dimethyl-4-oxo-3,13,19-triazatetracyclo[11.5.2.0^ {5,7}.0^{16,20}]icosa-1(19),14,16(20), 17-tetraen-14-yl]- ~{N}-[(3~{S},4~{S})-4-fluoro-3-piperidyl]-7-methoxy-1-methyl-benzimidazole-5-carboxamide], the IC50 is 69 nM.
For `COc1cc(C(=O)N[C@H]2CNCC[C@@H]2F)cc2nc(-c3cc4ccc5nc4n3C[C@H]3C[C@H]3CCC[C@](C)(C(F)(F)F)C(=O)N[C@@H]5C)n(C)c12` [Example 371, 2-[(3~{S},5~{R},9~{S},12~{R})-9,12-dimethyl-10-oxo-9-(trifluoromethyl)-1,11,20-triazatetracyclo[11.5.2.0^{3,5}.0^{16,19}]icosa-13(20),14,16(19),17-tetraen-18-yl]-~{N}-[(3~{S},4~{S})-4-fluoro-3-piperidyl]-7-methoxy-1-methyl-benzimidazole-5-carboxamide], the IC50 came out at 222 nM.
As to `C[C@H]1NC(=O)[C@@]2(C)C[C@@H]2C/C=C/C(F)(F)Cn2c(-c3nc4cc(C(=O)N[C@H]5CNCC[C@@H]5F)c(F)cc4n3C)cc3ccc1nc32` [Example 552, 2-[(2~{R},5~{S},7~{S}, 9~{E})-11,11-difluoro-2,5-dimethyl-4-oxo-3,13,19-triazatetracyclo[11.5.2.0^ {5,7}.0^{16,20}]icosa-1(19),9,14,16(20), 17-pentaen-14-yl]-6-fluoro-~{N}-[(3~{S},4~ {S})-4-fluoro-3-piperidyl]-1-methyl-benzimidazole-5-carboxamide], the IC50 amounted to 61 nM.
Under `C[C@H]1NC(=O)C2(CCCCCCn3c(-c4nc5cc(C(=O)N[C@H]6CNCC[C@@H]6F)c(F)cc5n4C)cc4ccc1nc43)CC(F)(F)C2` [Example 402, 2-[(11~{R})-1′,1′-difluoro-11-methyl-9-oxo-spiro[1,10,19-triazatricyclo[10.5.2.0^{15,18}]nonadeca-12(19),13,15(18),16-tetraene-8,3′-cyclobutane]-17-yl]-6-fluoro-~{N}-[(3~{S},4~{S})-4-fluoro-3-piperidyl]-1-methyl-benzimidazole-5-carboxamide] stands 91 nM.
As for `CCOCCn1c(-c2cc3ccc4nc3n2CCCCCCC(C)(C)C(=O)N[C@@H]4C)nc2cc(C(=O)N[C@H]3CNCC[C@@H]3F)c(F)cc21` [Example 425, 1-(2-ethoxyethyl)-6-fluoro-~{N}-[(3~{S},4~{S})-4-fluoro-3-piperidyl]-2-[(11~{R})-8,8,11-trimethyl-9-oxo-1,10,19-triazatricyclo[10.5.2.0^{15,18}]nonadeca-12(19),13,15(18),16-tetraen-17-yl]benzimidazole-5-carboxamide], the IC50 stood at 104 nM.
In the case of `COc1cc(C(=O)N2C[C@H](N)[C@@H]3CC[C@H]2C3)cc2nc(-c3cc4ccc5nc4n3CCCCCc3cccc(F)c3C(=O)N[C@@H]5C)n(C)c12` [Example 902, (2~{R})-17-[5-[(1~{S),4~{R}, 5~{R})-4-amino-2-azabicyclo [3.2.1]octane-2-carbonyl]-7-methoxy-1-methyl-benzimidazol-2-yl]-6-fluoro-2-methyl-3,16,22-triazatetracyclo [14.5.2.0^{5,10}.0^{19,23}] tricosa-1(22),5(10),6,8,17, 19(23),20-heptaen-4-one] it was 48 nM; in that of `COC[C@H]1CCN(C(=O)c2cc(OC)c3c(c2)nc(-c2cc4ccc5nc4n2CCCCCCC(C)(C)C(=O)N[C@@H]5C)n3C)C[C@@H]1N` [Example 677, (11~{R})-17-[5-[(3~ {R},4~{S})-3-amino-4-(methoxymethyl)piperidine-1-carbonyl]-7-methoxy-1-methyl-benzimidazol-2-yl]-8,8,11-trimethyl-1,10,19-triazatricyclo [10.5.2.0^{15,18}] nonadeca-12(19),13,15 (18),16-tetraen-9-one], 82 nM.
As for `CO[C@@H]1CCN(C(=O)c2cc(F)c3c(c2)nc(-c2cc4ccc5nc4n2CC(F)(F)CCC[C@@H]2C[C@H]2C(=O)N[C@@H]5C)n3C2C[C@H]2F)C[C@@H]1N` (stereo partly drawn) [Example 745, (2~{R},5~{R},7~{R})-14-[5-[(3~{S},4~{R})-3-amino-4-methoxy-piperidine-1-carbonyl]-7-fluoro-1-[(1~{S},2~{R})-2-fluorocyclopropyl]benzimidazol-2-yl]-11,11-difluoro-2-methyl-3,13,19-triazatetracyclo [11.5.2.0^{5,7}.0^{16,20}]icosa-1(19),14,16(20),17-tetraen-4-one], the IC50 is 22 nM.
For the compound `COc1cc(C(=O)N2CCC[C@@H](N)C2)cc2nc(-c3cc4ccc5nc4n3CCCCCCC(=O)N[C@@H]5C)n(C3CC3)c12` [Example 231, (10~{R})-16-[5-[(3~{R})-3-aminopiperidine-1-carbonyl]-1-cyclopropyl-7-methoxy-benzimidazol-2-yl]-10-methyl-1,9,18-triazatricyclo[9.5.2.0^{14,17}]octadeca-11(18),12,14(17),15-tetraen-8-one], the 50% inhibitory concentration (IC50) worked out at 84 nM.
Turning to `COc1cc(C(=O)N2C[C@H](N)[C@@H]3CC[C@H]2C3)cc2nc(-c3cc4ccc5nc4n3CCCCCCC(C)(C)C(=O)N[C@@H]5C)n(C)c12` [Example 441, (11~{R})-17-[5-[(1~{S),4~{R},5~{R})-4-amino-2-azabicyclo[3.2.1]octane-2-carbonyl]-7-methoxy-1-methyl-benzimidazol-2-yl]-8,8,11-trimethyl-1,10,19-triazatricyclo[10.5.2.0^{15,18}]nonadeca-12(19),13,15(18),16-tetraen-9-one], the IC50 was found to be 37 nM.
Consider `COc1cc(C(=O)N2CCC[C@@H](N)C2)cc2nc(-c3cc4ccc5nc4n3CCCCCCc3cn(nn3)C5C)n(C)c12` (stereo partly drawn) [Example 25, [(3˜{R})-3-amino-1-piperidyl]-[7-methoxy-1-methyl-2-(2-methyl-3,4,5,13,19-pentazatetracyclo[11.5.2.1^{3,6}.0^{16,20}]henicosa-1(19),4,6(21),14,16(20),17-hexaen-14-yl)benzimidazol-5-yl]methanone], for which the IC50 came out at 775 nM.
`COc1cc(C(=O)N2[C@H]3CC[C@@H]2[C@H](N)C3)cc2nc(-c3cc4ccc5nc4n3CCCCCCC(=O)Nc3ncccc3-5)n(C)c12` [Example 84, 17-[5-[(1~{R},2~{R},4~{S})-2-amino-7-azabicyclo[2.2.1]heptane-7-carbonyl]-7-methoxy-1-methyl-benzimidazol-2-yl]-6,8,16,22-tetrazatetracyclo[14.5.2.0^{2,7}.0^{19,23}] tricosa-1(22),2,4,6,17,19(23),20-heptaen-9-one]: the IC50 was 89 nM.
Take `COc1cc(C(=O)N2CCC[C@@H](N)C2)cc2nc(-c3cc4ccc5cc4n3CCCCCCC(C)(C)C(=O)N[C@@H]5C)n(C)c12` [Example 148, (11~{R})-17-[5-[(3~{R})-3-aminopiperidine-1-carbonyl]-7-methoxy-1-methyl-benzimidazol-2-yl]-8,8,11-trimethyl-1,10-diazatricyclo [10.5.2.0^{15,18}]nonadeca-12(19),13,15(18),16-tetraen-9-one]: the IC50 is 45 nM.
On to `C[C@H]1NC(=O)[C@@H]2C[C@H]2CCCCCn2c(-c3nc4cc(C(=O)N5C[C@H](N)[C@@H]6CC[C@H]5C6)cc(OC(F)F)c4n3C3CC3)cc3ccc1nc32` [Example 759, (2~{R},5~{R},7~{R})-14-[5-[(1~{S},4~{R},5~{R})-4-amino-2-azabicyclo[3.2.1]octane-2-carbonyl]-1-cyclopropyl-7-(difluoromethoxy)benzimidazol-2-yl]-2-methyl-3,13,19-triazatetracyclo[11.5.2.0^ {5,7}.0^{16,20}]icosa-1(19), 14,16(20),17-tetraen-4-one], for which the IC50 was determined as 17 nM.
Consider `COC1(Cn2c(-c3cc4ccc5nc4n3CCCCC[C@@H]3C[C@H]3C(=O)N[C@@H]5C)nc3cc(C(=O)N[C@H]4CNCC[C@@H]4F)c(F)cc32)CC1` [Example 404, 6-fluoro-~{N}-[(3~{S},4~{S})-4-fluoro-3-piperidyl]-1-[(1-methoxycyclopropyl)methyl]-2-[(2~{R},5~{R},7~{R})-2-methyl-4-oxo-3,13,19-triazatetracyclo[11.5.2.0^{5,7}.0^{16,20}]icosa-1(19),14,16(20),17-tetraen-14-yl]benzimidazole-5-carboxamide], for which the IC50 was found to be 83 nM.

For the origin of these results see US11976083B2, “Inhibitors of peptidylarginine deiminases” (Gilead Sciences, Inc., priority 2020, dated 2024).
